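Five concentrations, 48 hours, 96-well plates. GI50 marks 50% less growth. TGI is the concentration that stops growth completely.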
Assays:
Test in all cases: NCI-60 cell line screen, 48 h
MALME-3M melanoma = tested on: MALME-3M melanoma
NCI-H522 lung = tested on: NCI-H522 lung
HOP-62 NSCLC = tested on: HOP-62 NSCLC
SR leukemia = tested on: SR leukemia
TK-10 renal = tested on: TK-10 renal
SK-MEL-28 melanoma = tested on: SK-MEL-28 melanoma
SF-268 CNS = tested on: SF-268 CNS
HS 578T breast = tested on: HS 578T breast
A498 renal = tested on: A498 renal
NCI-H226 lung = tested on: NCI-H226 lung

CCN1[C@@H](C(=O)NC23CCC(C(=O)O)(CC2)CC3)[C@H](c2cccc(Cl)c2F)[C@]2(C(=O)Nc3cc(Cl)ccc32)C12CCCCC2
GI50 (MALME-3M melanoma): 0.0655 µM | TGI (MALME-3M melanoma): 1.18 µM | GI50 (NCI-H522 lung): 2.62 µM | TGI (NCI-H522 lung): 8.24 µM | GI50 (HOP-62 NSCLC): 3.19 µM | TGI (HOP-62 NSCLC): 13.6 µM | GI50 (SR leukemia): 0.0146 µM | TGI (SR leukemia): 4.72 µM | GI50 (TK-10 renal): 3.05 µM | TGI (TK-10 renal): 16.2 µM | GI50 (SK-MEL-28 melanoma): 3.71 µM | TGI (SK-MEL-28 melanoma): 14 µM | GI50 (SF-268 CNS): 3.1 µM | TGI (SF-268 CNS): 15.1 µM | GI50 (HS 578T breast): 2.05 µM | TGI (HS 578T breast): 10.1 µM | GI50 (A498 renal): 0.281 µM | TGI (A498 renal): 3.37 µM

O=C1/C(=C\c2ccco2)Oc2ccccc21
TGI (NCI-H522 lung): > 100 µM | TGI (HOP-62 NSCLC): > 100 µM | TGI (NCI-H226 lung): > 100 µM | TGI (SR leukemia): > 100 µM | TGI (TK-10 renal): > 100 µM | TGI (SK-MEL-28 melanoma): > 100 µM | TGI (SF-268 CNS): > 100 µM | TGI (HS 578T breast): > 100 µM | TGI (A498 renal): > 100 µM

COc1ccc(-c2nc(-c3nc4cc(Cl)c(F)cc4[nH]3)c3ccccn23)cc1
GI50 (MALME-3M melanoma): 20 µM | TGI (MALME-3M melanoma): > 100 µM | GI50 (NCI-H522 lung): 4.39 µM | TGI (NCI-H522 lung): > 100 µM | GI50 (HOP-62 NSCLC): 19.8 µM | TGI (HOP-62 NSCLC): > 100 µM | GI50 (NCI-H226 lung): 14.5 µM | TGI (NCI-H226 lung): > 100 µM | GI50 (SR leukemia): 3.87 µM | TGI (SR leukemia): > 100 µM | GI50 (TK-10 renal): 5.25 µM | TGI (TK-10 renal): > 100 µM | GI50 (SK-MEL-28 melanoma): > 100 µM | TGI (SK-MEL-28 melanoma): > 100 µM | GI50 (SF-268 CNS): 9.11 µM | TGI (SF-268 CNS): > 100 µM | GI50 (HS 578T breast): 12.2 µM | TGI (HS 578T breast): > 100 µM | GI50 (A498 renal): 2.31 µM | TGI (A498 renal): > 100 µM

Cc1ccc(S(=O)(=O)c2nc(-c3ccccc3)oc2S(C)(=O)=O)cc1
GI50 (MALME-3M melanoma): 1.9 µM | TGI (MALME-3M melanoma): 3.68 µM | GI50 (NCI-H522 lung): 1.52 µM | TGI (NCI-H522 lung): 3.3 µM | GI50 (HOP-62 NSCLC): 13.3 µM | TGI (HOP-62 NSCLC): 26.1 µM | GI50 (NCI-H226 lung): 3.31 µM | TGI (NCI-H226 lung): 15 µM | GI50 (SR leukemia): 2 µM | TGI (SR leukemia): 7.69 µM | GI50 (TK-10 renal): 1.7 µM | TGI (TK-10 renal): 3.1 µM | GI50 (SK-MEL-28 melanoma): 1.92 µM | TGI (SK-MEL-28 melanoma): 3.77 µM | GI50 (SF-268 CNS): 10.6 µM | TGI (SF-268 CNS): 24.4 µM | GI50 (HS 578T breast): 10.1 µM | TGI (HS 578T breast): 43.8 µM | GI50 (A498 renal): 15.4 µM | TGI (A498 renal): 28.7 µM

O=[N+]([O-])c1cc([As](Br)c2ccc(O)c([N+](=O)[O-])c2)ccc1O
TGI (MALME-3M melanoma): 2.38 µM | TGI (NCI-H522 lung): 0.45 µM | TGI (HOP-62 NSCLC): 4.87 µM | TGI (NCI-H226 lung): 3.21 µM | TGI (SR leukemia): 0.566 µM | TGI (TK-10 renal): 3.14 µM | TGI (SK-MEL-28 melanoma): 3.31 µM | TGI (SF-268 CNS): 5.59 µM | TGI (HS 578T breast): 5.93 µM | TGI (A498 renal): 3.74 µM

CC(C)(C)[Si](C)(C)OC1[C@@H](CNC(N)=O)O[C@@H](n2cnc3c(NC(=O)Nc4ccccc4)ncnc32)[C@H]1O[Si](C)(C)C(C)(C)C (some centres not stated)
GI50 (MALME-3M melanoma): 5.19 µM | TGI (MALME-3M melanoma): 12.5 µM | GI50 (NCI-H522 lung): 2.36 µM | TGI (NCI-H522 lung): 8.25 µM | GI50 (HOP-62 NSCLC): 6.38 µM | TGI (HOP-62 NSCLC): 12.9 µM | GI50 (NCI-H226 lung): 5.39 µM | TGI (NCI-H226 lung): 11.7 µM | GI50 (SR leukemia): 0.977 µM | TGI (SR leukemia): 1.99 µM | GI50 (SK-MEL-28 melanoma): 6.71 µM | TGI (SK-MEL-28 melanoma): 14 µM | GI50 (SF-268 CNS): 1.04 µM | TGI (SF-268 CNS): 2.36 µM | GI50 (HS 578T breast): 1.17 µM | TGI (HS 578T breast): 3.02 µM | GI50 (A498 renal): 1.56 µM | TGI (A498 renal): 8.04 µM

CSc1ncnc2c1ncn2CC(=O)C1CCC2C3CCC4=CC(=O)CCC4(C)C3CCC12C (configuration not stated)
TGI (MALME-3M melanoma): 31.7 µM | TGI (NCI-H522 lung): 24.5 µM | TGI (HOP-62 NSCLC): > 30.1 µM | TGI (NCI-H226 lung): 29.8 µM | TGI (SR leukemia): 5.56 µM | TGI (TK-10 renal): 30.1 µM | TGI (SK-MEL-28 melanoma): 28.2 µM | TGI (SF-268 CNS): > 100 µM | TGI (HS 578T breast): > 100 µM | TGI (A498 renal): 38.4 µM

COc1cc(OCc2cccc(-c3ccccc3)c2C)cc(OC)c1CN1CCCCC1C(=O)NCCOCCOCCN (configuration not stated)
GI50 (MALME-3M melanoma): 1.55 µM | TGI (MALME-3M melanoma): 3.05 µM | GI50 (NCI-H522 lung): 1.88 µM | TGI (NCI-H522 lung): 4.08 µM | GI50 (HOP-62 NSCLC): 2.3 µM | TGI (HOP-62 NSCLC): 6.06 µM | GI50 (NCI-H226 lung): 14.7 µM | TGI (NCI-H226 lung): 30.9 µM | GI50 (SR leukemia): 1.74 µM | TGI (SR leukemia): 4.24 µM | GI50 (TK-10 renal): 2.48 µM | TGI (TK-10 renal): 7.42 µM | GI50 (SK-MEL-28 melanoma): 1.75 µM | TGI (SK-MEL-28 melanoma): 3.22 µM | GI50 (SF-268 CNS): 2.1 µM | TGI (SF-268 CNS): 5.5 µM | GI50 (HS 578T breast): 1.93 µM | TGI (HS 578T breast): 4.56 µM | GI50 (A498 renal): 2.27 µM | TGI (A498 renal): 11.8 µM

COc1cc([C@@H]2c3cc4c(cc3[C@H](OC(C)=O)[C@H]3COC(=O)[C@@H]23)OCO4)cc(OC)c1OC
TGI (MALME-3M melanoma): > 100 µM | GI50 (NCI-H522 lung): 0.15 µM | TGI (NCI-H522 lung): 0.448 µM | GI50 (HOP-62 NSCLC): 0.4 µM | TGI (HOP-62 NSCLC): > 100 µM | GI50 (NCI-H226 lung): 3.82 µM | GI50 (SR leukemia): 0.153 µM | TGI (SR leukemia): > 100 µM | TGI (TK-10 renal): > 100 µM | GI50 (SK-MEL-28 melanoma): 0.729 µM | TGI (SK-MEL-28 melanoma): > 100 µM | GI50 (SF-268 CNS): 0.358 µM | GI50 (HS 578T breast): 0.253 µM | TGI (HS 578T breast): 0.682 µM | GI50 (A498 renal): 0.175 µM | TGI (A498 renal): 0.583 µM

O=C1c2cccnc2-c2nc(-c3cccnc3)cc3c2c1nc1ccccc13
GI50 (MALME-3M melanoma): 17.6 µM | TGI (MALME-3M melanoma): 32.4 µM | GI50 (NCI-H522 lung): 1.74 µM | TGI (NCI-H522 lung): 4.35 µM | GI50 (HOP-62 NSCLC): 1.73 µM | TGI (HOP-62 NSCLC): 3.22 µM | GI50 (NCI-H226 lung): 2.02 µM | TGI (NCI-H226 lung): 5.53 µM | TGI (SR leukemia): > 100 µM | GI50 (SK-MEL-28 melanoma): 20.5 µM | TGI (SK-MEL-28 melanoma): 59 µM | GI50 (SF-268 CNS): 3.73 µM | TGI (SF-268 CNS): > 26.5 µM | GI50 (HS 578T breast): 2.94 µM | TGI (HS 578T breast): > 20.9 µM | GI50 (A498 renal): 17.7 µM | TGI (A498 renal): 46.8 µM

CCn1cc(/C=C2\Oc3cc(OCC#N)ccc3C2=O)c2cc(OC)ccc21
TGI (MALME-3M melanoma): > 70.7 µM | GI50 (NCI-H522 lung): 2.46 µM | TGI (NCI-H522 lung): 28.5 µM | GI50 (HOP-62 NSCLC): 0.622 µM | TGI (HOP-62 NSCLC): > 46.6 µM | GI50 (NCI-H226 lung): 6.65 µM | TGI (NCI-H226 lung): > 44.3 µM | GI50 (SR leukemia): 0.102 µM | TGI (SR leukemia): > 100 µM | GI50 (TK-10 renal): 18.1 µM | TGI (TK-10 renal): > 64.1 µM | GI50 (SK-MEL-28 melanoma): 6.71 µM | TGI (SK-MEL-28 melanoma): > 100 µM | GI50 (SF-268 CNS): 1.48 µM | TGI (SF-268 CNS): > 55.6 µM | GI50 (HS 578T breast): 0.267 µM | TGI (HS 578T breast): > 28.8 µM | GI50 (A498 renal): 10.3 µM | TGI (A498 renal): > 100 µM
